According to PMC5641083, “Blockage of FOXP3 transcription factor dimerization and FOXP3/AML1 interaction inhibits T regulatory cell activity: sequence optimization of a peptide inhibitor” (Oncotarget, 2017):

Tests used:
CT26 tumor cells = assay: AH1 vaccination and CT26 tumor challenge; type: in vivo, BALB/c mice; details: AH1 in IFA, peptide 10 nanomol/mice/day i.p. 10 days, challenge 10^6 CT26 cells s.c. day 10
Protocol: In those experiments, BALB/c mice were immunized with peptide AH1 emulsified in IFA and treated daily with saline or with 50 nanomol/mice/day of peptide P60 i.p. from day 0 to day 9 after immunization. To study the efficacy of CM-1315, our optimized version of P60, mice immunized with AH1 were treated with 10 nanomol/mice/day of P60 or CM-1315 and challenged at day 10 by s.c. injection with 10^6 CT26 tumor cells (instead of 5 × 10^5 cells used in our previous study). As control, groups of mice were injected with AH1 alone or left untreated.
For tumor rejection experiments, Hepa-129 cells (10^6 cells/mouse), were injected subcutaneously (sc) in C3H/HeN mice (n = 6). Ten days later, when the tumor reached 5 mm in diameter, mice were randomly divided into different experimental groups. A group of mice were treated i.p. with anti-PD1 antibodies (50 μg/mouse). Antibody administration was repeated one week after this first administration. A group of mice treated with anti-PD1 also received the cyclic peptide CM-1215 from days 10 to 20 (50 μg/mice/day). Tumor size, presented as the average of two perpendicular diameters (millimetres), was measured at regular intervals. Mice were sacrificed when the mean tumor diameter was greater than 20 mm. […] Tumor size was monitored twice a week with a calliper and it was expressed according to the formula V = (length × width^2)/2. […]

Treg cells = assay: Treg pre-treated with peptide, then Treg suppression assay; type: cell-based; details: Treg incubated with peptide at 20 μM for 24 hours, washed
Description: FOXP3 is critical for the development and function of Tregs, but also, FOXP3 can be transiently expressed in effector T cells after TCR stimulation leading to hyporesponsiveness of the effector T cell. […] We speculate that the Foxp3 inhibitory peptides may work at two levels: (i) reducing Treg function and (ii) releasing the brake of FOXP3 transient expression on effector T cells. Thus, we studied the effect of CM-1315 in T cell proliferation and IL-2 and IFN-γ production in effector T cells in response to anti-CD3 stimulation. The original P60, the optimized peptide CM-1315 and a control peptide were tested. […] We also studied the effect of the peptides directly in Tregs. Thus, freshly isolated Treg cells were pre-treated with the peptides for 24 h, and after extensive washing, they were used in conventional Treg suppression assay in coculture with effector T cells and anti-CD3 stimulation.
Supplementary Figure 4: Effect of Foxp3 inhibitory peptides in effector T cells alone. […] T cell proliferation (A) and IL-2 and IFN-γ (B and C) production in response to anti-CD3 stimulation was measured by 3H-thymidine incorporation and by ELISA respectively.
Supplementary Figure 5: Effect of FOXP3 inhibitory peptides in Treg cells. […] T cell proliferation was measured by 3H-thymidine incorporation assay. […]

FOXP3/AML1 interaction = molecular target: T1, FOXP3/AML1 interaction (Homo sapiens, UniProt Q9BZS1); assay: AlphaScreen FOXP3/AML1 heterodimerization assay; type: biochemical
T1 sequence (Q9BZS1 1-431): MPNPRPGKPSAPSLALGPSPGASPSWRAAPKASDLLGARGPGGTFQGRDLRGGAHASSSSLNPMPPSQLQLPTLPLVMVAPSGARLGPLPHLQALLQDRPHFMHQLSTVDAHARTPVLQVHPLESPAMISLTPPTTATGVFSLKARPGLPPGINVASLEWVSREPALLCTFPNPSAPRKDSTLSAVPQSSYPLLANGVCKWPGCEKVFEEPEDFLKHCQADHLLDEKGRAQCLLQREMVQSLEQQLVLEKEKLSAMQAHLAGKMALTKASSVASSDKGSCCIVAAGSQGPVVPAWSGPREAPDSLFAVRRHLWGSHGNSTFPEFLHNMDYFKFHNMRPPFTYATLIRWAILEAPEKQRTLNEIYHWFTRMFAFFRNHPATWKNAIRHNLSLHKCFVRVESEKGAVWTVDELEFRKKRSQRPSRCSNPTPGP
Description: AML1 is required for IL-2 and IFN-γ gene expression in conventional CD4+ T cells and its interaction with FOXP3 is needed for the immunosuppressive activity of Tregs. On the other hand, it has been described that the leucine zipper region is necessary and sufficient to mediate FOXP3 homo-dimerization, which is required for its function as a transcriptional regulator [13, 15, 20]. Thus, since P60 binds to this FOXP3 intermediate region, we analyzed if it could act as a decoy molecule to inhibit FOXP3 homodimerization or the FOXP3-AML1 heterodimerization. The capacity of FOXP3 to homodimerize was measured using the […] assay platform AlphaScreen™ (Perkin Elmer). Previous protein-cross titration experiment using different concentrations of FOXP3-6His (from 1000 to 0 nM) and GST-FOXP3 (from 300 to 0 nM) allowed us to define the optimal protein concentrations to analyze FOXP3 homodimerization (Figure 2A). […] We also tested if GST tagged FOXP3 was able to interact with AML1 protein tagged with 6 His at the N-terminus. As shown in the cross titration experiments in Figure 2C, a specific FOXP3-AML1 heterodimerization was visualized as an increase in the AlphaScreen signal.
FOXP3/AML1 heterodimerization, as well as FOXP3/FOXP3 homodimerization were analyzed by Alphascreen technology according to the manufacturer's instructions (Perkin Elmer, Benelux) as previously described.

H-RDFQSFRKMWPFFAM-OH [P60]
Protection against CT26 tumor challenge (in words) (CT26 tumor cells): only animals treated with CM-1315 remained protected | Inhibition of suppressive activity of pre-treated Treg (in words) (Treg cells): not able to inhibit significantly Treg cells, although some reversal of suppression was observed | Inhibition of FOXP3-AML1 heterodimerization (in words) (FOXP3/AML1 interaction): able to reduce the signal in a dose dependent manner
